Measured values taken from patent publication US10882856B2 (BeiGene, Ltd., priority 2017, dated 2021).

How the values were obtained:
IDO1 [1] = target: T1, IDO1 (Homo sapiens, UniProt P14902); assay: IDO1 enzymatic assay; type: biochemical; parameters: His tag (N); made in house; host or cells: E. coli; settings: read-out: Enzyme IC50 IDO1
Method in brief: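 Recombinant IDO1 carrying an N-terminal His tag and purified from E. coli was used at 50 nM with test compound, 1.3 mM D-tryptophan, 5 mM L-ascorbic acid, methylene blue and 0.4 mg/mL catalase in 50 mM potassium phosphate pH 7.5 containing 0.1% BSA. This mixture was incubated at 24 °C for 1.5 hours, after which N'-formylkynurenine formation was followed continuously at 321 nm for 1 hour and activity was taken as the slope. IC50 was derived from the enzyme activity remaining as compound concentration increased.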

IDO1 [2] = target: T1, IDO1; assay: Hela cell-based IDO1 assay; settings: Hela cells
Method in brief: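 HeLa cells were seeded at 8000 per well in 96-well plates in phenol red-free DMEM with 10% FBS. After 4 hours, DMSO-diluted compound dilutions were added with IFN-γ (final 100 ng/mL) and 0.4 mM L-Trp, and cells were kept 48 hours at 37 °C, 5% CO2. Supernatant was deproteinised with trichloroacetic acid, and kynurenine was measured at 480 nm after adding 2% 4-(dimethylamino)benzaldehyde. Potency came from four-parameter logistic fits in XLfit.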

[3] = target: T2, cellular TDO2 in HEK293-TDO2 cells (Homo sapiens, UniProt P48775); assay: 293-TDO2 cell-based assay (Kyn colorimetric); settings: 48 hours of incubation
T2 construct: expressed in transfected cells; host or cells: HEK293 (ATCC), stably transfected
T2 sequence (P48775 whole entry): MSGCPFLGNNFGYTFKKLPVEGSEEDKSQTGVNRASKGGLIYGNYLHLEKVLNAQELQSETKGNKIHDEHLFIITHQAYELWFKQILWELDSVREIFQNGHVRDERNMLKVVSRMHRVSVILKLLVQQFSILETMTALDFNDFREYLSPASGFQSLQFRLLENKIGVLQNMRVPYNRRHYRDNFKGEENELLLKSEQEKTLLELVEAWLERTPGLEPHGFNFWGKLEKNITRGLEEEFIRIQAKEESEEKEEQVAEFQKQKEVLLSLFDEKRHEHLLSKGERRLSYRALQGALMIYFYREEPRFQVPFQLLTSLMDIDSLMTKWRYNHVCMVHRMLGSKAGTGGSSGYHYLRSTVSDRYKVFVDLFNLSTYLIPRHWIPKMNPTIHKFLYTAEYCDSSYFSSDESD
Method in brief: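 Kyn formed from L-Trp was read colorimetrically at 480 nm (TCA deproteinisation, then 2% 4-(dimethylamino)benzaldehyde). Compounds were added to 293-TDO2 cells 4 h post-seeding and left 48 h at 37° C. A four-parameter logistic model gave IC50 values.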

T1 sequence (P14902 whole entry): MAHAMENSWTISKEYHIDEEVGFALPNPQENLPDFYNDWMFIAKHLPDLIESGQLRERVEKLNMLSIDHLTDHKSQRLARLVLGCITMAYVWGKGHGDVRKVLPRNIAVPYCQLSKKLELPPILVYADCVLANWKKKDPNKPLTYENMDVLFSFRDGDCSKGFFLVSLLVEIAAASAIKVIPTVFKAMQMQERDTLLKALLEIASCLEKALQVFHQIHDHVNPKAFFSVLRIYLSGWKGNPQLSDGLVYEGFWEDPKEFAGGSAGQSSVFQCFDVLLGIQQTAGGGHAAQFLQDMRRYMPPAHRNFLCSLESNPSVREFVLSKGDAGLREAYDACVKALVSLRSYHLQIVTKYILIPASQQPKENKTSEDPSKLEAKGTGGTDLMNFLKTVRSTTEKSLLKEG

IC50 (IDO1 [1]) [µM]	EC50 (IDO1 [2]) [µM]	EC50 [3] [µM]	SMILES
0.074	0.029	> 10	OC(c1c(C2CC2)ccn2cncc12)C1CCN(c2ccccc2)CC1 (stereo not drawn) [Example C136, (7-cyclopropylimidazo[1,5-a]pyridin-8-yl)(1-phenylpiperidin-4-yl)methanol]
0.079	0.177	> 10	OC(c1c(C2CC2)ccn2cncc12)C1CCN(c2ccc(F)cc2)CC1 (stereo not drawn) [Example C137, (7-cyclopropylimidazo[1,5-a]pyridin-8-yl)(1-(4-fluorophenyl)piperidin-4-yl)methanol]
0.067	0.149	> 10	OC(c1c(C2CC2)ccn2cncc12)C1CCN(c2cccc(F)c2)CC1 (stereo not drawn) [Example C138, (7-cyclopropylimidazo[1,5-a]pyridin-8-yl)(1-(3-fluorophenyl)piperidin-4-yl)methanol]
0.89	> 10	> 10	OC(c1c(C2CC2)ccn2cncc12)C1CCN(C2CC2)CC1 (stereo not drawn) [Example C139, (7-cyclopropylimidazo[1,5-a]pyridin-8-yl)(1-cyclopropylpiperidin-4-yl)methanol]
0.14	0.304	> 10	OC(c1c(C2CC2)ccn2cncc12)C1CCN(c2cccc(Cl)c2)CC1 (stereo not drawn) [Example C140, (1-(3-chlorophenyl)piperidin-4-yl)(7-cyclopropylimidazo[1,5-a]pyridin-8-yl)methanol]
0.076	0.105	> 10	OC(c1c(C2CC2)ccn2cncc12)C1CCN(c2ccc(F)c(F)c2)CC1 (stereo not drawn) [Example C141, (7-cyclopropylimidazo[1,5-a]pyridin-8-yl)(1-(3,4-difluorophenyl)piperidin-4-yl)methanol]
0.032	0.267	> 10	COc1ccc(N2CCC(C(O)c3c(C4CC4)ccn4cncc34)CC2)cc1 (stereo not drawn) [Example C142, (7-cyclopropylimidazo[1,5-a]pyridin-8-yl)(1-(4-methoxyphenyl)piperidin-4-yl)methanol]
0.13	1.1	> 10	Oc1ccc(N2CCC(C(O)c3c(C4CC4)ccn4cncc34)CC2)cc1 (stereo not drawn) [Example C143]
0.04	0.748	> 10	N#Cc1ccc(N2CCC(C(O)c3c(C4CC4)ccn4cncc34)CC2)cc1 (stereo not drawn) [Example C144, 4-(4-((7-cyclopropylimidazo[1,5-a]pyridin-8-yl)(hydroxy)methyl)piperidin-1-yl)benzonitrile]
0.09	> 10	> 10	O=C(O)c1ccc(N2CCC(C(O)c3c(C4CC4)ccn4cncc34)CC2)cc1 (stereo not drawn) [Example C145, 4-(4-((7-cyclopropylimidazo[1,5-a]pyridin-8-yl)(hydroxy)methyl)piperidin-1-yl)benzoic acid]
0.047	2.23	> 10	OC(c1c(C2CC2)ccn2cncc12)C1CCN(c2ccccn2)CC1 (stereo not drawn) [Example C146, (7-cyclopropylimidazo[1,5-a]pyridin-8-yl)(1-(pyridin-2-yl)piperidin-4-yl)methanol]
2.3	> 10	> 10	OC(c1c(C2CC2)ccn2cncc12)C1CCN(c2ccncc2)CC1 (stereo not drawn) [Example C147, (7-cyclopropylimidazo[1,5-a]pyridin-8-yl)(1-(pyridin-4-yl)piperidin-4-yl)methanol]
0.074	1.29	> 10	OC(c1c(C2CC2)ccn2cncc12)C1CCN(c2cccnc2)CC1 (stereo not drawn) [Example C148, (7-cyclopropylimidazo[1,5-a]pyridin-8-yl)(1-(pyridin-3-yl)piperidin-4-yl)methanol]
0.04	0.042	> 10	OC(c1c(C2CC2)ccn2cncc12)C1CCN(c2ccc(F)c3ncccc23)CC1 (stereo not drawn) [Example C149, (7-cyclopropylimidazo[1,5-a]pyridin-8-yl)(1-(8-fluoroquinolin-5-yl)piperidin-4-yl)methanol]
0.16	1.51	> 10	OC(c1c(C2CC2)ccn2cncc12)C1CCN(c2ccnc3ccccc23)CC1 (stereo not drawn) [Example C150, (7-cyclopropylimidazo[1,5-a]pyridin-8-yl)(1-(quinolin-4-yl)piperidin-4-yl)methanol]
0.035	0.373	> 10	OC(c1c(C2CC2)ccn2cncc12)C1CCN(c2ccnc3ccc(F)cc23)CC1 (stereo not drawn) [Example C151, (7-cyclopropylimidazo[1,5-a]pyridin-8-yl)(1-(6-fluoroquinolin-4-yl)piperidin-4-yl)methanol]
0.036	0.049	> 10	OC(c1c(C2CC2)ccn2cncc12)C1CCN(c2ccc(Cl)c3ncccc23)CC1 (stereo not drawn) [Example C154, (1-(8-chloroquinolin-5-yl)piperidin-4-yl)(7-cyclopropylimidazo[1,5-a]pyridin-8-yl)methanol]
0.061	0.149	> 10	OC(c1c(C2CC2)ccn2cncc12)C1CCN(c2ccc(F)c3cccnc23)CC1 (stereo not drawn) [Example C155, (7-cyclopropylimidazo[1,5-a]pyridin-8-yl)(1-(5-fluoroquinolin-8-yl)piperidin-4-yl)methanol]
0.027	0.1	> 10	OC(c1c(C2CC2)ccc2cncn12)C1CCC(c2ccccc2)CC1 (stereo not drawn) [Example D101, (6-cyclopropylimidazo[1,5-a]pyridin-5-yl)(4-phenylcyclohexyl)methanol]
0.023	0.074	> 10	COc1ccc(C2CCC(C(O)c3c(C4CC4)ccc4cncn34)CC2)cc1 (stereo not drawn) [Example D102, (6-cyclopropylimidazo[1,5-a]pyridin-5-yl)(4-(4-methoxyphenyl)cyclohexyl)methanol]
0.038	0.163	> 10	OC(c1c(C2CC2)ccc2cncn12)C1CCC(c2ccc(Cl)cc2)CC1 (stereo not drawn) [Example D103, (4-(4-chlorophenyl)cyclohexyl)(6-cyclopropylimidazo[1,5-a]pyridin-5-yl)methanol]
0.033	0.044	> 10	OC(c1c(C2CC2)ccc2cncn12)C1CCC(c2ccc(F)cc2)CC1 (stereo not drawn) [Example D104, (6-cyclopropylimidazo[1,5-a]pyridin-5-yl)(4-(4-fluorophenyl)cyclohexyl)methanol]
0.076	0.869	> 10	OC(c1c(C2CC2)ccc2cncn12)C1CCC(c2ccc(OC(F)(F)F)cc2)CC1 (stereo not drawn) [Example D105, (6-cyclopropylimidazo[1,5-a]pyridin-5-yl)(4-(4-trifluoromethoxy)phenylcyclohexyl)methanol]
0.03	0.068	> 10	Oc1ccc(C2CCC(C(O)c3c(C4CC4)ccc4cncn34)CC2)cc1 (stereo not drawn) [Example D106, 4-(4-((6-cyclopropylimidazo[1,5-a]pyridin-5-yl)(hydroxy)methyl)cyclohexyl)phenol]
1.1	2.58	> 10	Oc1ccc([C@H]2CC[C@H]([C@@H](O)c3c(C4CC4)ccc4cncn34)CC2)cc1 [Example D106b, 4-((1R,4r)-4-((R)-(6-cyclopropylimidazo [1,5-a]pyridin-5-yl)(hydroxy)methyl)cyclohexyl)phenol]
0.03	1.48	> 10	OC(c1c(C2CC2)ccc2cncn12)C1CCC(c2ccc(C(F)(F)F)nc2)CC1 (stereo not drawn) [Example D107, (6-cyclopropylimidazo[1,5-a]pyridin-5-yl)(4-(6-(trifluoromethyl)pyridin-3-yl)cyclohexyl)methanol]
0.03	0.072	> 10	OCC(CCl)Oc1ccc(C2CCC(C(O)c3c(C4CC4)ccc4cncn34)CC2)cc1 (stereo not drawn) [Example D108, 3-chloro-2-(4-(4-((6-cyclopropylimidazo[1,5-a]pyridin-5-yl) (hydroxy)methyl)cyclohexyl)phenoxy)propan-1-ol]
0.039	0.206	> 10	OC(c1c(C2CC2)ccc2cncn12)C1CCC(c2ccc(OC3COC3)cc2)CC1 (stereo not drawn) [Example D109, (6-cyclopropylimidazo[1,5-a]pyridin-5-yl)(4-(4-(oxetan-3-yloxy)phenyl)cyclohexyl)methanol]
0.04	0.373	> 10	N#Cc1ccc(C2CCC(C(O)c3c(C4CC4)ccc4cncn34)CC2)cc1 (stereo not drawn) [Example D110, 4-(4-((6-cyclopropylimidazo[1,5-a]pyridin-5-yl)(hydroxy)methyl)cyclohexyl)benzonitrile]
0.025	0.47	> 10	O=C(O)c1ccc(C2CCC(C(O)c3c(C4CC4)ccc4cncn34)CC2)cc1 (stereo not drawn) [Example D111, 4-(4-((6-cyclopropylimidazo[1,5-a]pyridin-5-yl)(hydroxy)methyl)cyclohexyl)benzoic acid]
